Laboratory results taken from patent US9328106B2, “Cyclic ether pyrazol-4-yl-heterocyclyl-carboxamide compounds and methods of use” (Genentech, Inc., priority 2012, dated 2016).

Molecular target: PIM1 (Homo sapiens (Human), UniProt P11309)
Assay: biochemical
Type: biochemical
Conditions: 20 pM PIM1, 1 μM FAM-peptide, 10 μM ATP, 90 minutes at room temperature; read-out: PIM1 LC3K (KI)
Protocol: Reaction Buffer contained 10 mM HEPES, pH 7.2, 10 mM MgCl2, 0.01% Tween 20, 2 mM DTT. Termination Buffer contained 190 mM HEPES, pH 7.2, 0.015% Brij-35, 0.2% Coating Reagent 3 (Caliper Life Sciences, Hopkinton, Mass.), 20 mM EDTA. Separation Buffer contained 100 mM HEPES, pH 7.2, 0.015% Brij-35, 0.1% Coating Reagent 3, 1:200 Coating Reagent 8 (Caliper Life Sciences, Hopkinton, Mass.), 10 mM EDTA and 5% DMSO.
PIM reactions were carried out in a final volume of 10 μL per well in a 384-well plate. […] After 90 minutes of incubation at room temperature, the phosphorylation reaction was stopped by the addition of 10 μL Termination Buffer. The product and substrate in each independent reaction were separated on a 12-sipper microfluidic chip (Caliper Life Sciences, Hopkinton, Mass.) run on a Caliper LC3000® (Caliper Life Sciences, Hopkinton, Mass.). The separation of product and substrate was optimized by choosing voltages and pressure using Caliper's Optimizer software (Hopkinton, Mass.). The separation conditions used a downstream voltage of −500V, an upstream voltage of −2150V, and a screening pressure of −1.2 psi. […] Substrate conversion was calculated from the electropherogram using HTS Well Analyzer software (Caliper Life Sciences, Hopkinton, Mass.). Ki values for the test compound were calculated.

Chain of PIM1 (P11309 whole entry): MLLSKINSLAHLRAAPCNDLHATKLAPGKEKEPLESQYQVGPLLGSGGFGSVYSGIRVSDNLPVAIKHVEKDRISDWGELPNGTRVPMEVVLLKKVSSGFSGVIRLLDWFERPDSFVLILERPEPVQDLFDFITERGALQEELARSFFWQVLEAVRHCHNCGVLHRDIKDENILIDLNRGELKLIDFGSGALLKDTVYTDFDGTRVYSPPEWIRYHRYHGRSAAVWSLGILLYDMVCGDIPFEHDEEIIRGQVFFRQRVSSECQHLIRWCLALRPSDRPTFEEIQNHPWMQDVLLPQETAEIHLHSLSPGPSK

Compound: Cn1ncc(NC(=O)c2nc(-c3c(F)cccc3F)sc2N)c1C1OCC(CO)CO1 (stereo not drawn) [Example 165, 5-Amino-2-(2,6-difluorophenyl)-N-[5-[5-(hydroxymethyl)-1,3-dioxan-2-yl]-1-methyl-pyrazol-4-yl]thiazole-4-carboxamide]
- Ki: 0.647 nM

Compound: Cn1ncc(NC(=O)c2csc(-c3cncc(F)c3)n2)c1[C@@H]1CC[C@@H](N)[C@@H](F)CO1 [Example 246, N-(5-((2S,5R,6R)-5-amino-6-fluorooxepan-2-yl)-1-methyl-1H-pyrazol-4-yl)-2-(5-fluoropyridin-3-yl)thiazole-4-carboxamide]
- Ki: 5.76 nM

Compound: Cn1ncc(NC(=O)c2nc(-c3c(F)cccc3F)sc2N)c1C1C[C@H](N)[C@@H](F)CCO1 (stereo partly drawn) [Example 130, 5-amino-N-(5-((4S,5S)-4-amino-5-fluorooxepan-2-yl)-1-methyl-1H-pyrazol-4-yl)-2-(2,6-difluorophenyl)thiazole-4-carboxamide]
- Ki: 0.358 nM

Compound: Cn1ncc(NC(=O)c2ccc(F)c(-c3cc(F)ccc3F)n2)c1[C@@H]1CC[C@@H](N)[C@H](F)CO1 [Example 222, N-(5-((2S,5R,6S)-5-amino-6-fluorooxepan-2-yl)-1-methyl-1H-pyrazol-4-yl)-6-(2,5-difluorophenyl)-5-fluoropicolinamide]
- Ki: 0.161 nM

Compound: Cn1ncc(NC(=O)c2nc(-c3c(F)cccc3F)sc2N)c1[C@]12CC[C@H](O1)[C@@H](O)CC2 [Example 106, 5-amino-2-(2,6-difluorophenyl)-N-(5-((1S,4S,5S)-4-hydroxy-8-oxabicyclo[3.2.1]octan-1-yl)-1-methyl-1H-pyrazol-4-yl)thiazole-4-carboxamide]
- Ki: 0.032 nM

Compound: COCCOc1cc(F)c(-c2nc(C(=O)Nc3cnn(C)c3[C@@H]3CC[C@@H](N)[C@@H](F)CO3)ccc2F)c(F)c1 [Example 189, N-(5-((2S,5R,6R)-5-Amino-6-fluorooxepan-2-yl)-1-methyl-1H-pyrazol-4-yl)-6-(2,6-difluoro-4-(2-methoxyethoxy)phenyl)-5-fluoropicolinamide]
- Ki: 0.025 nM

Compound: CC[C@]1(CN)CO[C@H](c2c(NC(=O)c3nc(-c4c(F)cccc4F)sc3N)cnn2C)OC1 [Example 173, 5-Amino-N-[5-[5-(aminomethyl)-5-ethyl-1,3-dioxan-2-yl]-1-methyl-pyrazol-4-yl]-2-(2,6-difluorophenyl)thiazole-4-carboxamide]
- Ki: 0.015 nM

Compound: Cn1ncc(NC(=O)c2nc(-c3c(F)cccc3C(F)(F)F)sc2N)c1[C@@H]1CC[C@@H](N)[C@H](F)CO1 [Example 331, 5-amino-N-(5-((2S,5R,6S)-5-amino-6-fluorooxepan-2-yl)-1-methyl-1H-pyrazol-4-yl)-2-(2-fluoro-6-(trifluoromethyl)phenyl)thiazole-4-carboxamide]
- Ki: 0.104 nM

Compound: Cn1ncc(NC(=O)c2nc(-c3c(F)cccc3F)sc2N)c1[C@H]1C[C@H](F)[C@@H](N)CCO1 [Example 137, 5-amino-N-(5-((2R,4S,5S)-5-amino-4-fluorooxepan-2-yl)-1-methyl-1H-pyrazol-4-yl)-2-(2,6-difluorophenyl)thiazole-4-carboxamide]
- Ki: 0.099 nM

Compound: Cn1ncc(NC(=O)c2ccc(F)c(-c3cccc(F)c3Cl)n2)c1[C@@H]1CC[C@@H](N)[C@H](F)CO1 [Example 227, N-(5-((2S,5R,6S)-5-amino-6-fluorooxepan-2-yl)-1-methyl-1H-pyrazol-4-yl)-6-(2-chloro-3-fluorophenyl)-5-fluoropicolinamide]
- Ki: 0.57 nM

Compound: Cn1ncc(NC(=O)c2nc(-c3c(F)cccc3F)sc2N)c1C1CC[C@@H](O)[C@@H](O)CO1 (stereo partly drawn) [Example 111, 5-amino-2-(2,6-difluorophenyl)-N-(5-((5R,6S)-5,6-dihydroxyoxepan-2-yl)-1-methyl-1H-pyrazol-4-yl)thiazole-4-carboxamide]
- Ki: 0.425 nM

Compound: CO[C@H]1CO[C@H](c2c(NC(=O)c3nc(-c4cc(Cl)ccc4F)sc3N)cnn2C)CC[C@H]1N [Example 281, 5-amino-N-(5-((2S,5R,6R)-5-amino-6-methoxyoxepan-2-yl)-1-methyl-1H-pyrazol-4-yl)-2-(5-chloro-2-fluorophenyl)thiazole-4-carboxamide]
- Ki: 0.007 nM
